In patent US20160033528A1, “Methods for Selecting Peptides that Bind to Disease Specific Antibodies, Disease Specific Peptides and Uses Thereof” (The Regents of the University of California, priority 2014, published 2016):

Key:
[1] = system: CD patient IgG antibodies; assay: Individual clone reactivity with individual patient sera by flow cytometry (second-generation PEQ peptides); format: binding, human; conditions: CD case sera n=18 not used for screening
Protocol: Depletion of E. coli binding serum antibodies. Diluted sera were depleted of E. coli binding antibodies prior to library screening and clone reactivity assays. To remove E. coli binding antibodies, an overnight culture of cells expressing the library scaffold (eCPX) with or without the v114 peptide were diluted (1:50) in fresh media and grown separately until the optical density at 600 nm (OD600) was ˜0.6. Cells were induced for 1 hr at 37° C., and then 2×10^9 cells from each culture were combined and centrifuged at 3000 ref for 5 min. Cells were resuspended in PBS-T (1 mL) containing 100× diluted pooled or individual sera. Samples were incubated overnight at 4° C. on an orbital shaker at 20 rpm. After incubation, samples were centrifuged at 3000 ref for 5 min (2×), and the depleted serum supernatant was recovered and stored at 4° C. for up to three days before use.
For flow cytometric analysis and sorting, induced cells corresponding to 5× the estimated remaining clonal diversity were incubated with 1:100-1:200 dilution of pooled sera for 45 min at 4° C. followed by centrifugation and removal of unbound supernatant (3× washing). The pellet was then resuspended in the respective 1:500 biotinylated goat anti-human secondary antibody (IgA/IgG/IgM) in 1× PBST at 4° C. for 45 min followed by centrifugation and removal of unbound supernatant (2× washing). For tertiary labeling, the pellet resuspended in 15 nM SA-PE in 1× PBST at 4° C. for 45 min, followed by another wash via centrifugation and resuspension (3× washing) in ice-cold PBST at a volume between 10^7 and 10^8 cells/mL. Resuspended cells were analyzed using a FACSAria cell sorter (Becton Dickinson) using 488-nm excitation. After sorting, retained cells were amplified for further rounds of sorting by overnight growth and plated to isolate single clones. […]
In vitro evolution of CD specific peptides. […] To assess the diagnostic sensitivity and specificity of individual peptides, the reactivities of one representative clone from each motif group was measured using CD case (n=18) and non-CD control sera (n=5) not used for screening. […]

[2] = system: serum IgA of patients with CD; conditions: cited from earlier work
anti-CSE antibodies = assay: CSE reactivity in matched CD sera at diagnosis and after one year of gluten-free diet; format: binding, human; conditions: 11 CD cases
Text: Active CD patients (n=54) ranging in age from 18-74 had small intestinal biopsies with a Marsh 3a-3c histological lesion, tested seropositive for transglutaminase (TG2) and endomysium (EMA) autoantibodies, and were Caucasian. Human lymphocyte antigens (HLA)-typing for the presence of DQ2 or DQ8 alleles was available for 42/54 CD sera.
Directed evolution pooled clone & individual patient single clone reactivity assays. To compare the reactivity of consensus epitopes from each generation, overnight cultures of individual clones within a consensus epitope family (4-5 clones/family) were diluted (1:50) in fresh media and grown until the OD600 was between 0.5 and 0.7. Cultures of each individual Clones were induced for 45 min, and 10^6 cells from each culture were pooled together. Pooled consensus epitope families were assayed for binding to case and control group sera (3 subjects/group) by flow cytometry. […] Cells expressing the eCPX scaffold without a peptide insert were used as a negative (background) control. […]
To determine prevalence of anti-CSE antibodies in CD and control subjects, CD and non-CD sera (n=231) were assessed for reactivity to the CSE peptide: MDVRCRDSFVYQCHVGT (SEQ ID NO: 2). […]

| Sequence | CD sera the peptide reacted with (reactive/tested) [1] | also measured |
| --- | --- | --- |
| GQGQAFPEQGSVPIN [A/VFPEQ motif peptide, focused library 1] | 14/18 | – |
| VAWTMGPEQPLVRAL [PEQPL motif peptide, focused library 1] | 11/18 | – |
| VVKGGSSSLGW [celiac peptide, synthetic peptide of Giovanna et al., PLOS Med. 2006] | – | individual patients with CD whose serum IgA specifically recognized the peptide [2]: 68% |
| MDVRCRDSFVYQCHVGT [CSE peptide] | – | patients with reduced, but non-zero, levels of epitope reactivity after a GFD (anti-CSE antibodies; after one year on a gluten-free diet): 8/11; active CD patients reactive (anti-CSE antibodies; sera at time-of-diagnosis): 10/11 |
| VWDRGVPEQMFPRKG [PEQxFP motif derived peptide, focused library 1] | 18/18 | – |
